Data: ChEMBL document CHEMBL4602715, “Efficacy and Tolerability of Pyrazolo[1,5-a]pyrimidine RET Kinase Inhibitors for the Treatment of Lung Adenocarcinoma” (ACS Med Chem Lett, 2020)
pIC50: −log10 of the molar value. Values after ≈ are worked out from the molar mass of the structure shown.

How the values were obtained:
[1] = system: LC-2-ad; experiment: Cytotoxicity against human LC2/ad cells assessed as reduction in cell viability incubated for 6 days by CellTiter Glo assay; format: cell-based; conditions: 144 h
[2] = Aqueous solubility of compound at pH 6.8 incubated for 24 hrs by HPLC/UV analysis; format: physicochemical
[3] = molecular target: Bcr/Abl fusion protein (Homo sapiens, UniProt P00519); experiment: Inhibition of BCR/ABL (unknown origin) transfected in mouse Ba/F3 cells assessed as reduction in cell viability incubated for 48 hrs by brightglo-luciferase reporter gene assay; format: cell-based, BaF3
Chain of Bcr/Abl fusion protein (P00519 whole entry, the tested form may be a part): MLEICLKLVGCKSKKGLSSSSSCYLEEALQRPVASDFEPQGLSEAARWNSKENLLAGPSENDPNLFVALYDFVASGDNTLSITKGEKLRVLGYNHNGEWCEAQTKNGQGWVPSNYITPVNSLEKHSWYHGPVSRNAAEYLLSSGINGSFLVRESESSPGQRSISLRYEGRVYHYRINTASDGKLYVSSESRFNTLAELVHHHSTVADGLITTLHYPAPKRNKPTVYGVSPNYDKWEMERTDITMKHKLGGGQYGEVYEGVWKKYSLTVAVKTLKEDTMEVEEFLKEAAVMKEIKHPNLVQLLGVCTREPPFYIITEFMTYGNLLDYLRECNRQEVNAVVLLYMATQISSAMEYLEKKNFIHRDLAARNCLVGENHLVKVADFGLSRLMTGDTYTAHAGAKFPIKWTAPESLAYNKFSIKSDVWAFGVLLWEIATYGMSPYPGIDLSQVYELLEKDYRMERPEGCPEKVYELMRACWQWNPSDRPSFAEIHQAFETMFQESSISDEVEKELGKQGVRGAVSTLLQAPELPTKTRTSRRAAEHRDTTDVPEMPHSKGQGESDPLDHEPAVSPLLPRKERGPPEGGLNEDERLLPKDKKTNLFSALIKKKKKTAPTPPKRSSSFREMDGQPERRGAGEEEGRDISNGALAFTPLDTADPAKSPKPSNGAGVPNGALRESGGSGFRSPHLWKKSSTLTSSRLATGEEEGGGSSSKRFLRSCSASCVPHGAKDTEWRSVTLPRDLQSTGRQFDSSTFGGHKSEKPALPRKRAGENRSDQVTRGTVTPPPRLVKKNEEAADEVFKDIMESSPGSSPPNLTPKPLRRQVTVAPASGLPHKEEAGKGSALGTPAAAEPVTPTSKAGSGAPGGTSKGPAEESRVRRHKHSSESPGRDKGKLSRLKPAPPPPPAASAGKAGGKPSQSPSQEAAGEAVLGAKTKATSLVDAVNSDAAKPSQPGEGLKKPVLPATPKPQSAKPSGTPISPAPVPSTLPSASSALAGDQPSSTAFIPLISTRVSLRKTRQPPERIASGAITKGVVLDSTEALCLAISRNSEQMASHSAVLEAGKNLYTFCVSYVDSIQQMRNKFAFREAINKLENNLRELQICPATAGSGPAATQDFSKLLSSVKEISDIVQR
Chain of Bcr/Abl fusion protein (P11274 whole entry, further chain, the tested form may be a part): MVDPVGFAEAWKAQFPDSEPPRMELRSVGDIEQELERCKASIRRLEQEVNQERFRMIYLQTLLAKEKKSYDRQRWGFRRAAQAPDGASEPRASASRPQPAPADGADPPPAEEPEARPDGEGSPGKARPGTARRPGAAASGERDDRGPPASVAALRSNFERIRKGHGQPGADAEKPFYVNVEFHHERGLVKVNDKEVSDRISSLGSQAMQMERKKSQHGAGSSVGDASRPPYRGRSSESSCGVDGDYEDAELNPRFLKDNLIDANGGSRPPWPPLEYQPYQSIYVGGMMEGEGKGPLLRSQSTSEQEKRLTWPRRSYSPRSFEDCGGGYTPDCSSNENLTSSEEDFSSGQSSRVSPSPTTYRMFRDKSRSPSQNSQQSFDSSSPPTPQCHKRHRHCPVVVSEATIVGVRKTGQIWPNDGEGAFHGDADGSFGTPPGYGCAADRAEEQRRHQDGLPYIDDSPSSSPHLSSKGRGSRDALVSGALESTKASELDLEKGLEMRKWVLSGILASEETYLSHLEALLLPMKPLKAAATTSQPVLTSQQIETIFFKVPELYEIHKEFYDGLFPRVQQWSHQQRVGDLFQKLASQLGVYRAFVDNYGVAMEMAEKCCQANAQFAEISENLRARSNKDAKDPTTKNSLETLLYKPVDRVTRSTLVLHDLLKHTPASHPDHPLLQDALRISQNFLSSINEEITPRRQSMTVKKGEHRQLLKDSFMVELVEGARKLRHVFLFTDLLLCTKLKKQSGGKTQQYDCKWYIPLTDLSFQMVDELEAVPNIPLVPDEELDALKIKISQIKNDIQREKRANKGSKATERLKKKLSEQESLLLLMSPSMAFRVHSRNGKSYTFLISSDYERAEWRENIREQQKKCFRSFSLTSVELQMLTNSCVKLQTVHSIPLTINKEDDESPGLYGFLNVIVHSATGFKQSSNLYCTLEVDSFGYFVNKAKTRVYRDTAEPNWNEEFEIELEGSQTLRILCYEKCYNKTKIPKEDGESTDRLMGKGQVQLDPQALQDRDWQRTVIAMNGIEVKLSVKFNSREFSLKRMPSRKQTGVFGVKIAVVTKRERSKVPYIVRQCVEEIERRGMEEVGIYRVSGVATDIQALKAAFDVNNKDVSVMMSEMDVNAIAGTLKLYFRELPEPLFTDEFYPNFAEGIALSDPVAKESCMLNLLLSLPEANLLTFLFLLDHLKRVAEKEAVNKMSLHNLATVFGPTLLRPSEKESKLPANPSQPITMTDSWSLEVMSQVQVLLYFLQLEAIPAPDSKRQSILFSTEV

[4] = system: BaF3; experiment: Cytotoxicity against mouse BA/F3 cells assessed as reduction in cell viability incubated for 48 hrs by brightglo-luciferase reporter gene assay; format: cell-based; conditions: BaF3, 48 h
[5] = Oral bioavailability in BALB/c mouse at 10 mg/kg measured upto 24 hrs by LC-MS/MS analysis; format: ADME, organism-based; conditions: in vivo
[6] = Volume of distribution at steady state in BALB/c mouse at 2 mg/kg, iv measured upto 24 hrs by LC-MS/MS analysis; format: ADME, organism-based; conditions: in vivo, read-out: Vdss
[7] = Half life in BALB/c mouse at 10 mg/kg, po measured upto 24 hrs by LC-MS/MS analysis; format: ADME, organism-based; conditions: in vivo
[8] = Cmax in BALB/c mouse at 10 mg/kg, po measured upto 24 hrs by LC-MS/MS analysis; format: ADME, organism-based; design: dose 10 mg/kg, route oral; conditions: in vivo
[9] = AUC in BALB/c mouse at 10 mg/kg, po measured upto 24 hrs by LC-MS/MS analysis; format: ADME, organism-based; design: dose 10 mg/kg, time < 24 hr, route oral; conditions: in vivo
[10] = Clearance in BALB/c mouse at 2 mg/kg, iv measured upto 24 hrs by LC-MS/MS analysis; format: ADME, organism-based; conditions: in vivo
[11] = AUC in BALB/c mouse at 2 mg/kg, iv measured upto 24 hrs by LC-MS/MS analysis; format: ADME, organism-based; design: dose 2 mg/kg, time < 24 hr, route intravenous; conditions: in vivo
[12] = Cmax in BALB/c mouse at 2 mg/kg, iv measured upto 24 hrs by LC-MS/MS analysis; format: ADME, organism-based; design: dose 2 mg/kg, route intravenous; conditions: in vivo
[13] = Half life in BALB/c mouse at 2 mg/kg, iv measured upto 24 hrs by LC-MS/MS analysis; format: ADME, organism-based; conditions: in vivo

solubility at 24 h [2] | SMILES | pIC50 [1] | pIC50 [3] | pIC50 [4] | also measured
> 175 µM | COc1ccc(-c2cnn3c(N)c(-c4ccccc4)c(NCCCN(C)C)nc23)cc1OC | < 5.00 |  |  | 
 | COC(=O)Nc1ccc(-c2c(OC3CCN(C)CC3)nc3c(-c4ccc(OC)c(OC)c4)cnn3c2N)cc1 |  | 5.29 | 5.30 | 
7.1 µM (≈ 3.26 µg/mL) | COc1ccc(-c2cnn3c(N)c(-c4ccccc4)c(OC4CCN(C)CC4)nc23)cc1OC | 5.80 | 6.06 | < 4.96 | 
 | CN1C(C)(C)CC(Nc2nc3c(-c4ccc(C(=O)N5CCN(S(C)(=O)=O)CC5)cc4)cnn3c(N)c2-c2ccccc2)CC1(C)C | 5.55 |  |  | bioavailability [5]: 14%; Vd [6]: 11 L/kg; half-life [7]: 2.2 h; Cmax [8]: 100 nM; AUC at 24 h [9]: 0.34 µM·h; clearance [10]: 110 mL/min/kg; AUC at 24 h [11]: 0.49 µM·h; Cmax [12]: 450 nM; half-life [13]: 1.6 h
85 µM (≈ 39 µg/mL) | COc1ccc(-c2cnn3c(N)c(-c4ccccc4)c(NC4CCN(C)CC4)nc23)cc1OC | 5.26 |  |  | 
47 µM (≈ 20.9 µg/mL) | COc1ccc(-c2cnn3c(N)c(-c4ccccc4)c(OC4CCNCC4)nc23)cc1OC | 5.57 |  |  | 
